Laboratory results taken from the supplement of paper PMC10307832.

Assays:
Test in all cases: relative viability (nuclei count vs DMSO), 5 days (fraction); higher = more cells survive
AGI-6780 + Olaparib = compound: O=C(Nc1cccc(C(F)(F)F)c1)Nc1cc(S(=O)(=O)NC2CC2)ccc1-c1ccsc1 [AGI-6780] + O=C(c1cc(Cc2n[nH]c(=O)c3ccccc23)ccc1F)N1CCN(C(=O)C2CC2)CC1 [Olaparib] (partner 8 µM)
How it was run: (§1)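 Lung cancer cell lines were pin-tool dosed in 1536-well plates on the day after seeding, with either a lone drug or a fixed anchor-drug dose plus five library-drug doses (not always all listed) in √10 steps. Nuclei were counted on 4× images after 5 days. Relative viability is the ratio of treated-well to vehicle-well nuclei counts, with each value a median of duplicate plates.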

AGI-6780 + Bortezomib = compound: O=C(Nc1cccc(C(F)(F)F)c1)Nc1cc(S(=O)(=O)NC2CC2)ccc1-c1ccsc1 [AGI-6780] + CC(C)C[C@H](NC(=O)[C@H](Cc1ccccc1)NC(=O)c1cnccn1)B(O)O [Bortezomib] (partner 0.002 µM)
How it was run: as §1

AGI-6780 + Pemetrexed = compound: O=C(Nc1cccc(C(F)(F)F)c1)Nc1cc(S(=O)(=O)NC2CC2)ccc1-c1ccsc1 [AGI-6780] + Nc1nc2[nH]cc(CCc3ccc(C(=O)N[C@@H](CCC(=O)O)C(=O)O)cc3)c2c(=O)[nH]1 [Pemetrexed] (partner 0.2 µM)
How it was run: as §1

AGI-6780 + Alpelisib = compound: O=C(Nc1cccc(C(F)(F)F)c1)Nc1cc(S(=O)(=O)NC2CC2)ccc1-c1ccsc1 [AGI-6780] + Cc1nc(NC(=O)N2CCC[C@H]2C(N)=O)sc1-c1ccnc(C(C)(C)C(F)(F)F)c1 [Alpelisib] (partner 2 µM)
How it was run: as §1

Row | Cell Line | relative viability (AGI-6780 + Olaparib; first compound 0.08 µM) | relative viability (AGI-6780 + Olaparib; first compound 0.253 µM) | relative viability (AGI-6780 + Olaparib; first compound 0.8 µM) | relative viability (AGI-6780 + Olaparib; first compound 2.53 µM) | relative viability (AGI-6780 + Olaparib; first compound 8 µM) | relative viability (AGI-6780 + Bortezomib; first compound 0.08 µM) | relative viability (AGI-6780 + Bortezomib; first compound 0.253 µM) | relative viability (AGI-6780 + Bortezomib; first compound 0.8 µM) | relative viability (AGI-6780 + Bortezomib; first compound 2.53 µM) | relative viability (AGI-6780 + Bortezomib; first compound 8 µM) | relative viability (AGI-6780 + Pemetrexed; first compound 0.08 µM) | relative viability (AGI-6780 + Pemetrexed; first compound 0.253 µM) | relative viability (AGI-6780 + Pemetrexed; first compound 0.8 µM) | relative viability (AGI-6780 + Pemetrexed; first compound 2.53 µM) | relative viability (AGI-6780 + Pemetrexed; first compound 8 µM) | relative viability (AGI-6780 + Alpelisib; first compound 0.08 µM) | relative viability (AGI-6780 + Alpelisib; first compound 0.253 µM) | relative viability (AGI-6780 + Alpelisib; first compound 0.8 µM) | relative viability (AGI-6780 + Alpelisib; first compound 2.53 µM) | relative viability (AGI-6780 + Alpelisib; first compound 8 µM)
1 | HCC-78 | 0.897 | 0.798 | 1.06 | 0.665 | 0.849 | 0.479 | 0.432 | 0.739 | 0.626 | 0.581 | 0.957 | 0.859 | 0.908 | 0.85 | 0.927 | 0.366 | 0.331 | 0.462 | 0.32 | 0.361
2 | HCC-366 | 0.369 | 0.38 | 0.364 | 0.258 | 0.426 | 1.1 | 1.06 | 1.03 | 1.02 | 1.11 | 0.177 | 0.174 | 0.157 | 0.259 | 0.168 | 0.589 | 0.442 | 0.441 | 0.278 | 0.417
3 | HCC-827 | 0.73 | 0.659 | 0.661 | 0.53 | 0.651 | 0.927 | 1.1 | 0.996 | 1.12 | 1.15 | 0.237 | 0.257 | 0.264 | 0.256 | 0.27 | 0.937 | 0.971 | 0.986 | 0.952 | 0.955
4 | HOP-62 | 0.47 | 0.303 | 0.197 | 0.536 | 0.452 | 0.496 | 0.818 | 0.737 | 1.02 | 0.763 | 0.336 | 0.303 | 0.378 | 0.346 | 0.385 | 0.923 | 0.985 | 0.986 | 1.14 | 1.27
5 | IA-LM | 1.05 | 0.763 | 1 | 0.869 | 0.927 | 0.91 | 0.876 | 0.811 | 0.977 | 0.829 |  |  |  |  |  | 0.858 | 0.846 | 0.719 | 0.797 | 0.707
6 | LC-2-ad | 0.782 | 0.707 | 0.764 | 0.674 | 0.727 | 1.02 | 1.05 | 0.994 | 1.04 | 1.01 | 0.278 | 0.254 | 0.255 | 0.253 | 0.284 | 0.945 | 0.983 | 0.897 | 0.862 | 0.826
7 | LK-2 | 0.643 | 0.778 | 0.945 |  | 0.755 |  |  |  |  |  | 0.228 | 0.359 | 0.28 |  | 0.366 | 1.27 | 1.1 | 1.29 |  | 0.986
8 | NCI-H358 | 0.692 | 0.64 | 0.834 | 0.452 | 0.636 |  |  |  |  |  | 0.145 | 0.182 | 0.148 | 0.173 | 0.166 | 0.896 | 0.906 | 0.835 | 0.63 | 0.721
9 | NCI-H522 | 0.527 | 0.636 | 0.746 |  | 0.551 |  |  |  |  |  | 1.23 | 1.04 | 0.913 |  | 1.05 |  |  |  |  | 
10 | NCI-H727 | 0.65 | 0.757 | 0.705 | 0.597 | 0.66 | 1.08 | 0.987 | 0.786 | 0.648 | 0.819 |  |  |  |  |  | 0.679 | 0.588 | 0.742 | 0.491 | 0.548
11 | NCI-H1299 | 0.982 | 0.964 | 0.948 | 0.908 | 0.961 | 1.06 | 1.03 | 0.944 | 1.02 | 1.03 |  |  |  |  |  | 1.02 | 1.04 | 0.971 | 1.09 | 1.02
12 | NCI-H1395 | 0.474 | 0.475 | 0.474 | 0.424 | 0.439 |  |  |  |  |  | 0.779 | 0.975 | 0.945 | 0.729 | 0.843 | 1.14 | 1.15 | 1.23 |  | 0.969
13 | NCI-H1563 |  |  |  |  |  | 1 | 0.918 | 0.843 | 0.75 | 0.824 | 0.712 | 0.822 | 0.748 | 0.655 | 0.518 | 0.923 | 0.934 | 0.846 | 0.992 | 0.874
14 | NCI-H1648 | 0.89 | 0.807 | 0.783 | 0.497 | 0.415 |  |  |  |  |  | 0.655 | 0.884 | 0.864 | 0.841 | 0.779 |  |  |  |  | 
15 | NCI-H1650 | 0.884 | 0.774 | 0.934 | 0.689 | 0.791 | 0.181 | 0.196 | 0.216 | 0.206 | 0.183 | 0.4 | 0.367 | 0.366 | 0.418 | 0.358 |  |  |  |  | 
16 | NCI-H1703 | 0.728 | 0.37 | 0.457 | 0.373 | 0.25 | 0.473 | 0.315 | 0.509 | 0.364 | 0.375 |  |  |  |  |  | 0.377 | 0.278 | 0.424 | 0.344 | 0.251
17 | NCI-H1793 | 0.904 | 0.845 | 0.902 | 0.695 | 0.805 |  |  |  |  |  | 0.838 | 0.926 | 0.964 | 0.671 | 0.959 | 0.744 | 0.831 | 0.943 | 0.562 | 0.675
18 | NCI-H1944 | 0.464 | 0.412 | 0.448 |  | 0.395 |  |  |  |  |  | 0.642 | 0.627 | 0.611 |  | 0.684 | 0.862 | 0.886 | 0.821 | 0.7 | 0.767
19 | NCI-H2170 | 0.589 | 0.587 | 0.67 |  | 0.59 |  |  |  |  |  | 0.285 | 0.267 | 0.289 |  | 0.272 | 0.813 | 0.838 | 0.86 |  | 0.772
20 | NCI-H2342 | 0.407 | 0.437 | 0.504 | 0.497 | 0.565 |  |  |  |  |  | 0.777 | 0.781 | 0.835 | 0.715 | 0.85 |  |  |  |  | 
21 | SK-MES-1 | 0.738 | 0.667 | 0.628 | 0.643 | 0.592 |  |  |  |  |  | 0.991 | 0.929 | 0.836 | 0.985 | 0.929 | 0.877 | 0.926 | 0.898 | 0.894 | 0.789
